122 compounds from a melting point compilation (Tetko et al.) can be followed below.

The melting point is the temperature, or range, at which the solid turns liquid. Consider `Cc1ccc(Br)c2c1NC(=O)C2=O`, for which the melting point is 239 to 241 °C.

For `N#CC1CC(=O)N(c2ccccc2)C1` (configuration not stated), the melting point lay within 138 to 140 °C.

The compound `Clc1ccc2cccc(Br)c2n1` came in with a melting point of 112 to 114 °C.

As to `Cc1ccc(-n2nc(C(=O)O)ccc2=O)cc1Cl`, the melting point lay in the range of 240 to 242 °C.

`COc1ccc(C(=O)C(Cl)c2ccc(OC)cc2)cc1` (configuration not stated): the melting point is 69 to 71 °C.

`OCc1cnc2ccccc2c1`: the melting point lay within 82 to 84 °C.

`CC(NC(=O)CCl)c1ccco1` (configuration not stated) had a melting point of 63 to 65 °C.

`CC1CC(C)CN(S(=O)(=O)c2cccc(C(=O)O)c2)C1` (configuration not stated) had a melting point of 217 to 219 °C.

Compound `CS(=O)(=O)c1cccc(S(=O)(=O)Cl)c1` came in with a melting point of 87 to 89 °C.

The compound `Oc1cc(Cl)cnc1Br` returned a melting point of 144 to 146 °C.

In the case of `COCCSc1ccc([N+](=O)[O-])cc1C(=O)O`, the melting point was in the range of 159 to 161 °C.

Take `Clc1ccc2nnc(-c3ccccc3)n2n1`: the melting point fell in the range of 201 to 203 °C.

As to `Cc1ncc(CO)c(C)n1`, the melting point lay within 52 to 54 °C.

In the case of `NC(=O)COc1ccccc1C(=O)O`, the melting point was in the range of 199 to 201 °C.

In the case of `Cc1cccc(N2N=C(C(=O)O)CCC2=O)c1`, the melting point lay in the range of 152 to 154 °C.

In turn, `Cc1cc2ccccc2c(=O)[nH]1` returned a melting point of 199 to 201 °C.

The compound `O=C1c2ccccc2C(=O)N1c1cnn(Cc2ccccc2)c1` showed a melting point of 149 to 151 °C.

The compound `CC1(C)Cc2cc(C(=O)O)sc2-c2ccccc21` had a melting point of 209 to 211 °C.

`CC(=O)N(C)CCC(N)=S` came in with a melting point of 109 to 111 °C.

Turning to `CC(c1nnc(S)n1-c1ccc(F)cc1)N1CCCCC1` (configuration not stated), the melting point lay in the range of 115 to 117 °C.

In turn, `Nc1cc(Br)ccc1I` returned a melting point of 49 to 51 °C.

As to `CC(=O)NCCc1ccc(S(N)(=O)=O)s1`, the melting point lay within 144 to 146 °C.

In turn, `Nc1nnc(-c2ccccc2)o1` registered a melting point of 243 to 245 °C.

In turn, `O=C(O)CCCOc1ccc(I)cc1` had a melting point of 126 to 128 °C.

In turn, `CC(C)(CN)S(=O)(=O)c1ccc(Br)cc1` yielded a melting point of 74 to 76 °C.

Consider `Clc1ccnc2c(Br)cccc12`, for which the melting point fell in the range of 148 to 150 °C.

`O=C(O)c1cc(Cl)nc(N2CCOCC2)c1` gave a melting point of 222 to 224 °C.

`O=C(CCl)c1nnc(-c2ccccc2)o1`: the melting point fell in the range of 123 to 125 °C.

`O=C(O)c1ncccc1C(F)(F)F` displayed a melting point of 107 to 109 °C.

In the case of `CSCCC(C(=O)O)N1C(=O)c2ccccc2C1=O` (configuration not stated), the melting point fell in the range of 125 to 127 °C.

Turning to `CNS(=O)(=O)c1ccc(N)cc1`, the melting point was 110 to 112 °C.

Take `O=S(=O)(F)CCn1nnc(-c2ccccc2)n1`: the melting point was in the range of 97 to 99 °C.

Compound `Cc1noc(C)c1CSCC(=O)O` had a melting point of 92 to 94 °C.

`CS(=O)(=O)c1ccc(C2CNCCO2)cc1` (configuration not stated) registered a melting point of 109 to 111 °C.

In the case of `O=C(O)c1cc(NS(=O)(=O)c2cc([N+](=O)[O-])ccc2Cl)ccc1O`, the melting point lay in the range of 43 to 45 °C.

For `O=C(CCl)N(Cc1ccccc1)c1ccccc1`, the melting point was in the range of 79 to 81 °C.

With `NC1=NC(=O)c2ccccc21`, the melting point is 208 to 210 °C.

With `Cc1cncc(-n2ccnc2)c1`, the melting point lay in the range of 88 to 90 °C.

On to `Cc1c(N)cccc1CS(C)=O` (configuration not stated), for which the melting point was in the range of 183 to 185 °C.

Turning to `c1cc2n(n1)CCCN2`, the melting point was in the range of 99 to 101 °C.

Regarding `COc1c(Cl)cc(Cl)cc1C=O`, the melting point fell in the range of 85 to 87 °C.

`CCOc1ccc(N2C(=O)c3ccc(C(=O)O)cc3C2=O)cc1` gave a melting point of 265 to 267 °C.

`O=C(O)C1CCN(c2ccc(Cl)c(Cl)c2)C1=O` (configuration not stated) had a melting point of 165 to 167 °C.

With `Cc1cc(Br)oc1C(=O)O`, the melting point lay within 169 to 171 °C.

For the compound `O=C1NC(=O)C(c2ccccc2)(C(F)(F)F)N1` (configuration not stated), the melting point lay within 240 to 242 °C.

Take `O=C(O)C1=NOC(c2ccccc2)C1` (configuration not stated): the melting point fell in the range of 102 to 104 °C.

Regarding `Nc1cc(O)cc(F)c1`, the melting point fell in the range of 159 to 161 °C.

`ClCc1nc2cc(Cl)ccc2n1Cc1ccccc1` displayed a melting point of 105 to 115 °C.

The compound `CC(=O)c1sc(-c2ccc(Br)cc2)nc1C` returned a melting point of 103 to 105 °C.

The compound `CCOC(=O)/C(C#N)=C\Nc1ccc(CC)cc1` displayed a melting point of 97 to 99 °C.

On to `CC(C)Nc1cc(F)ccc1[N+](=O)[O-]`, for which the melting point fell in the range of 68 to 70 °C.

For the compound `Oc1nnc2c(Cl)cccn12`, the melting point lay in the range of 269 to 271 °C.

As for `CCC(N)(C(=O)O)c1ccccc1` (configuration not stated), the melting point lay in the range of 285 to 287 °C.

For the compound `O=C(O)CCNc1ccccn1`, the melting point is 169 to 171 °C.

Compound `CC(C)CNCC(=O)O` displayed a melting point of 198 to 200 °C.

`O=C(O)c1ccc(C(=O)c2cc[nH]c2)cc1` showed a melting point of 219 to 221 °C.

`CC1=NC2(CCCC2)C(=O)N1` displayed a melting point of 66 to 68 °C.

`N#Cc1ccccc1COc1cccc(C(=O)O)c1` displayed a melting point of 181 to 183 °C.

On to `COc1ccccc1C1(C(=O)O)CC1`, for which the melting point fell in the range of 131 to 133 °C.

Take `NC(=S)C(NC(=O)c1ccccc1)C1CC1` (configuration not stated): the melting point was 199 to 201 °C.

In turn, `CCOC(=O)c1cn[nH]c1S(N)(=O)=O` displayed a melting point of 171 to 173 °C.

Consider `O=C1NC(=O)N(c2ccc3c(c2)OCO3)C1=O`, for which the melting point was in the range of 195 to 197 °C.

Turning to `O=c1[nH]c(-c2cccc(Cl)c2)cs1`, the melting point fell in the range of 163 to 165 °C.

With `Cn1c(C(=O)O)cc2ccccc21`, the melting point was in the range of 212 to 213 °C.

Compound `O=C(O)C=Cc1ccc(OCc2ccncc2)cc1` registered a melting point of 298 to 300 °C.

In turn, `Nc1ccc(-c2ccc[nH]2)cc1` yielded a melting point of 120 to 122 °C.

`Cc1ccc(N)c(N)c1C` showed a melting point of 49 to 51 °C.

The compound `Cc1nc(-c2ccc(Cl)nc2)[nH]c(=O)c1C` yielded a melting point of 263 to 265 °C.

`CS(=O)(=O)c1ccc(C2CO2)cc1` (configuration not stated) came in with a melting point of 97 to 99 °C.

Take `CC(O)C(NC(=O)C1CC1C)C(=O)O` (configuration not stated): the melting point is 138 to 140 °C.

`Cc1ccc(Cl)c(OCC(=O)O)c1` registered a melting point of 134 to 136 °C.

`CC(C)(O[Si](C)(C)C)C(N)=O` displayed a melting point of 29 to 31 °C.

On to `O=C(O)c1cncc2ccccc12`, for which the melting point fell in the range of 249 to 251 °C.

`Cc1nc2nc(S)nn2c(C)c1CC(=O)O` returned a melting point of 226 to 228 °C.

Consider `CC(=O)c1cc(Br)c(F)cc1O`, for which the melting point was 77 to 79 °C.

Take `O=C(O)c1ccnc(OCCOc2cc(C(=O)O)ccn2)c1`: the melting point lay within 269 to 271 °C.

As for `O=C(O)c1cc(S(=O)(=O)N2CCC2)ccc1Cl`, the melting point lay in the range of 172 to 174 °C.

In the case of `COc1cc(CCl)cc(Br)c1OC`, the melting point lay within 60 to 62 °C.

Take `Cc1ccc(SCCC(=O)NN)cc1`: the melting point fell in the range of 106 to 108 °C.

Compound `Nc1cc(S(=O)(=O)N2CCOCC2)ccc1Cl` gave a melting point of 177 to 179 °C.

In turn, `CC(C(=O)O)c1cccnc1` (configuration not stated) gave a melting point of 85 to 87 °C.

Compound `CCCOc1ccc(CCC(=O)O)cc1` came in with a melting point of 90 to 92 °C.

On to `O=C(O)c1ccc(-c2ccc(F)cc2)o1`, for which the melting point is 193 to 195 °C.

For the compound `CCn1c(N)nc2cc(Cl)ccc21`, the melting point was in the range of 169 to 171 °C.

Take `Cc1cc(=O)[nH]cc1C(=O)O`: the melting point was in the range of 306 to 308 °C.

For `CC(C)(C)OC(=O)NC1CCCCC1(C)C(=O)O` (configuration not stated), the melting point is 149 to 151 °C.

In the case of `COc1ccc(S(=O)(=O)Nc2ccccc2Cl)cc1N`, the melting point was in the range of 93 to 95 °C.

With `COC(=O)C(CCl)NC(C)=O` (configuration not stated), the melting point lay in the range of 74 to 76 °C.

`S=C1Nc2ccccc2C2CC=NN12` (configuration not stated) displayed a melting point of 249 to 251 °C.

`CC(=CC(=O)O)c1ccccc1C(F)(F)F`: the melting point fell in the range of 133 to 135 °C.

Consider `O=C(O)c1ccnc(C2CCCC2)n1`, for which the melting point fell in the range of 129 to 131 °C.

As for `CC(C)N1CCN(C2CCNCC2)CC1`, the melting point is 49 to 51 °C.

The compound `Cn1c(=O)[nH]c(=O)c2cc(C(=O)O)cnc21` came in with a melting point of 316 to 318 °C.

With `O=C(O)c1ccc[nH]1`, the melting point was in the range of 204 to 208 °C.

As for `O=C1CCc2cc(O)ccc2N1`, the melting point was 239 to 241 °C.

`Nc1nc(-c2cccc(Cl)c2)cs1` yielded a melting point of 125 to 127 °C.

In turn, `CSCCC(NC(N)=O)C(=O)O` (configuration not stated) registered a melting point of 141 to 143 °C.

`NC(=O)c1ccccc1Oc1ncccc1C(=O)O` returned a melting point of 253 to 255 °C.

In turn, `CS(=O)(=O)c1cc(Br)ccc1[N+](=O)[O-]` gave a melting point of 152 to 154 °C.

As for `O=C(O)c1cccc(N2C(=O)CSC2=S)c1`, the melting point lay within 260 to 262 °C.

In turn, `CCNCC(=O)Nc1ccc(OC)cc1` yielded a melting point of 88 to 90 °C.

For the compound `FC(F)Oc1ccc(CNC23CC4CC(CC(C4)C2)C3)cc1`, the melting point was 283 to 285 °C.

On to `N#Cc1ccc(C(=O)O)nc1`, for which the melting point was in the range of 210 to 215 °C.

As to `CCOC(=O)c1cc(C2CC2)nc2onc(C(C)C)c12`, the melting point was in the range of 48 to 50 °C.

As for `COc1ccc(N)cc1OCc1cccnc1`, the melting point fell in the range of 95 to 97 °C.

With `Cn1cc(C(=O)O)c(C(F)(F)F)c1`, the melting point lay within 205 to 207 °C.

Compound `Cc1sc2nc(S)n(C(C)C)c(=O)c2c1C` registered a melting point of 270 to 272 °C.

In the case of `CCC(=O)Nc1cccc(C(=O)O)c1`, the melting point fell in the range of 229 to 231 °C.

Regarding `CC(C)C(N)c1nn[nH]n1` (configuration not stated), the melting point was 272 to 274 °C.

`Nc1cccc(NC(=O)c2ccoc2)c1`: the melting point was in the range of 120 to 122 °C.

As to `CN(C)S(=O)(=O)c1cc(Br)cnc1N`, the melting point was 173 to 175 °C.

On to `Cc1ccc(NC(=O)c2cc(Cl)ccc2Cl)c(C(=O)O)c1`, for which the melting point is 242 to 244 °C.

Compound `COC(=O)c1cccc(C(=O)O)n1` had a melting point of 149 to 151 °C.

Compound `CCC(C)C(C(=O)O)c1ccccc1` (configuration not stated) displayed a melting point of 50 to 52 °C.

As to `O=c1[nH]c(-c2cccc(Br)c2)no1`, the melting point was in the range of 198 to 200 °C.

As for `O=C1C(=O)N(Cc2ccc(Cl)cc2)c2ccccc21`, the melting point fell in the range of 163 to 165 °C.

For the compound `Cc1cc(N)n(C2CCOCC2)n1`, the melting point lay within 177 to 179 °C.

In the case of `CN(C)S(=O)(=O)c1c[nH]c(C(=O)O)c1`, the melting point was in the range of 197 to 199 °C.

Turning to `CN1CCC(Oc2ccc(C(=O)O)cc2)CC1`, the melting point fell in the range of 218 to 220 °C.

With `Cc1nc2nc(C(F)(F)F)nn2c(C)c1CCC(=O)O`, the melting point was in the range of 123 to 125 °C.

`Cc1n[nH]c2ncc(N)cc12` had a melting point of 186 to 188 °C.

`O=C1C=CC(=O)N1CCO` registered a melting point of 59 to 61 °C.
